Measured values taken from ChEMBL document CHEMBL1201862, “PubChem BioAssay data set” (2004).
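Dose response: 5 concentrations. Exposure: 48 h. Format: 96-well plates. Endpoint: linear interpolation; highest concentration if not reached. The concentration for 50% growth inhibition is given as GI50.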 The source made the active and inactive calls. Rule as the data show it: active = GI50 up to about 1.1 µM and inactive = higher.

Tests used:
Experiment in all cases: NCI anticancer screen, dose series, 48 h
[1] = system: HL-60
[2] = system: SF-268
[3] = system: CAKI-1
[4] = system: SK-OV-3
[5] = system: NCI/ADR-RES
[6] = system: TK-10
[7] = system: NCI-H23
[8] = system: PC-3
[9] = system: HOP-92
[10] = system: OVCAR-5
[11] = system: SK-MEL-2
[12] = system: OVCAR-8
[13] = system: SK-MEL-5
[14] = system: DU-145
[15] = system: MDA-MB-435
[16] = system: MDA-MB-231
[17] = system: SF-295
[18] = system: NCI-H522
[19] = system: NCI-H460
[20] = system: M14
[21] = system: HCC 2998
[22] = system: K562
[23] = system: HCT-15
[24] = system: SNB-19
[25] = system: CCRF-CEM
[26] = system: RXF 393
[27] = system: HT-29
[28] = system: SF-539
[29] = system: Hs-578T
[30] = system: UO-31
[31] = system: ACHN
[32] = system: KM12
[33] = system: OVCAR-3
[34] = system: U-251
[35] = system: LOX IMVI
[36] = system: MOLT-4
[37] = system: IGROV-1
[38] = system: SNB-75
[39] = system: UACC-62
[40] = system: SK-MEL-28
[41] = system: SR
[42] = system: 786-0
[43] = system: HCT-116
[44] = system: SN12C
[45] = system: UACC-257
[46] = system: MDA-N
[47] = system: OVCAR-4
[48] = system: RPMI-8226
[49] = system: Malme-3M
[50] = system: MCF7
[51] = system: T47D
[52] = system: A498
[53] = system: COLO 205
[54] = system: EKVX
[55] = system: BT-549
[56] = system: HOP-62
[57] = system: NCI-H226
[58] = system: A549
[59] = system: SW-620

SMILES: CSc1c(CC(=O)Nc2ccc(Cl)cc2)n(Cc2ccccc2)c2ccccc12
- GI50 [1]: > 100 µM (inactive)
- GI50 [2]: 12.9 µM (inactive)
- GI50 [3]: 22.8 µM (inactive)
- GI50 [4]: 41.4 µM (inactive)
- GI50 [5]: 19.4 µM (inactive)
- GI50 [6]: 16 µM (inactive)
- GI50 [7]: 29.1 µM (inactive)
- GI50 [8]: 11 µM (inactive)
- GI50 [9]: 13.7 µM (inactive)
- GI50 [10]: 29.6 µM (inactive)
- GI50 [11]: 14.2 µM (inactive)
- GI50 [12]: 12.3 µM (inactive)
- GI50 [13]: 29.9 µM (inactive)
- GI50 [14]: 38.5 µM (inactive)
- GI50 [15]: 49.3 µM (inactive)
- GI50 [16]: 14.8 µM (inactive)
- GI50 [17]: 62.7 µM (inactive)
- GI50 [18]: 18.1 µM (inactive)
- GI50 [19]: 25.5 µM (inactive)
- GI50 [20]: 58.2 µM (inactive)
- GI50 [21]: 19.5 µM (inactive)
- GI50 [22]: 28 µM (inactive)
- GI50 [23]: 30.5 µM
- GI50 [24]: 46.9 µM (inactive)
- GI50 [25]: 40.3 µM (inactive)
- GI50 [26]: 12.8 µM (inactive)
- GI50 [27]: 39.4 µM (inactive)
- GI50 [28]: 3 µM (inactive)
- GI50 [29]: 14.4 µM (inactive)
- GI50 [30]: 34.3 µM (inactive)
- GI50 [31]: 24.7 µM (inactive)
- GI50 [32]: > 100 µM (inactive)
- GI50 [33]: > 100 µM (inactive)
- GI50 [34]: 11.6 µM (inactive)
- GI50 [35]: 38 µM (inactive)
- GI50 [36]: 43.1 µM (inactive)
- GI50 [37]: 26.5 µM (inactive)
- GI50 [38]: 13 µM (inactive)
- GI50 [39]: 18.1 µM (inactive)
- GI50 [40]: > 100 µM (inactive)
- GI50 [41]: 23 µM (inactive)
- GI50 [42]: 11.3 µM (inactive)
- GI50 [43]: 23.9 µM (inactive)
- GI50 [44]: 32 µM (inactive)
- GI50 [45]: 24.8 µM (inactive)
- GI50 [46]: 76.4 µM (inactive)
- GI50 [47]: 11.7 µM (inactive)
- GI50 [48]: 67.5 µM (inactive)
- GI50 [49]: 57.7 µM (inactive)
- GI50 [50]: 18.6 µM (inactive)
- GI50 [51]: 12.1 µM (inactive)
- GI50 [52]: 8.26 µM (inactive)
- GI50 [53]: 44.6 µM (inactive)
- GI50 [54]: 12.1 µM (inactive)
- GI50 [55]: 15.1 µM (inactive)
- GI50 [56]: 21.2 µM (inactive)
- GI50 [57]: 20.8 µM (inactive)
- GI50 [58]: 43.5 µM (inactive)
- GI50 [59]: > 100 µM (inactive)
